This series concerns HCV Genotype 1B replicon cells. In kind it is cell-based. As to conditions: Table 3; cytotoxicity, cell titer glo. An excerpt: The genotype 1a replicon contains several adaptive mutations (NS4B Q31H, NS5A K68R, NS5A S232I), the luciferase gene and encodes for neomycin resistance. The genotype 1b replicon, also referred to as the ET replicon, is stably transfected with RNA transcripts harboring a I389luc-ubi-neo/NS3-3′/ET replicon with firefly luciferase-ubiquitin-neomycin phosphotransferase fusion protein and EMCV-IRES driven NS3-5B polyprotein containing the cell culture adaptive mutations (E1202G; T1280I; K1846T) See, Kreiger, et al., Journal of Virology 75:4614-4624 (2001). Both cell lines were grown in DMEM, supplemented with 10% fetal calf serum, 2 mM Glutamine, Penicillin (100 IU/mL)/Streptomycin (100 μg/mL), 1× nonessential amino acids, and 250 μg/mL G418 (“Geneticin”). They were all available through Life Technologies (Bethesda, Md.). The cells were plated at 0.5×10^4 cells/well in 384 well plates containing compounds. The final concentration of compounds ranged between 0.1 nM to 50 μM and the final DMSO concentration of 0.5%.
Luciferase activity was measured 48 hours later by adding a Steady glo (Promega, Madison, Wis.). Percent inhibition of replication data was plotted relative to no compound control. Under the same condition, cytotoxicity of the compounds was determined using cell titer glo (Promega, Madison, Wis.). EC50 values were determined from a 10 point dose response curve using 2-4 fold serial dilutions for each compound, which spans a concentration range of at least a 1000 fold. Replicon EC50 values, the concentration of compound required to inhibit 50% of the assay response, were calculated by curve fitting data to the Hill equation, using a non-linear least-squares curve-fitting program. The software tested the data for quality and rejected compounds with high and low activity before fitting the equation below.
In general, CC50 refers to the concentration giving 50% cytotoxicity. Low readings indicate greater toxicity to the cells, high ones lower toxicity to the cells. In turn, `O=C(OCCOCCO)C(c1cc(-c2ccc(C3CC3)cc2C(F)(F)F)no1)n1cc2nc(-c3cccc(F)c3F)nc-2cn1` (stereo not shown) [Compound 179, 2-[(2-hydroxyethyl)oxy]ethyl {3-[4-cyclopropyl-2-(trifluoromethyl)phenyl]-5-isoxazolyl}[2-(2,3-difluorophenyl)-5H-imidazo[4,5-d]pyridazin-5-yl]acetate] registered a CC50 of 50 µM.
The result for `CCCOC(=O)C(c1cc(-c2ccc(C3CC3)cc2C(F)(F)F)no1)n1cc2nc(-c3cccc(F)c3F)nc-2cn1` (stereo not shown) [Compound 184, Propyl {3-[4-cyclopropyl-2-(trifluoromethyl)phenyl]-5-isoxazolyl}[2-(2,3-difluorophenyl)-5H-imidazo[4,5-d]pyridazin-5-yl]acetate] reads 25 µM; that for `O=C(OCCCO)C(c1cc(-c2ccc(C3CC3)cc2C(F)(F)F)no1)n1cc2nc(-c3cccc(F)c3F)nc-2cn1` (stereo not shown) [Compound 182, 3-Hydroxypropyl {3-[4-cyclopropyl-2-(trifluoromethyl)phenyl]-5-isoxazolyl}[2-(2,3-difluorophenyl)-5H-imidazo[4,5-d]pyridazin-5-yl]acetate], above 50 µM.
`COC(=O)C(c1cc(-c2ccc(C3CC3)cc2C(F)(F)F)no1)n1cc2nc(-c3cccc(F)c3F)nc-2cn1` (stereo not shown) [Compound 178, Methyl {3-[4-cyclopropyl-2-(trifluoromethyl)phenyl]-5-isoxazolyl}[2-(2,3-difluorophenyl)-5H-imidazo[4,5-d]pyridazin-5-yl]acetate] showed a 50% cytotoxic concentration (CC50) of 25 µM.
